Assay results: patent publication US20250320496A1, “MODULATION OF ABCB11 GENE TRANSCRIPTION USING ANTISENSE OLIGONUCLEOTIDES TARGETING REGULATORY RNAS” (CAMP4 Therapeutics Corporation, priority 2022, published 2025)
Strand notation (5' to 3'): a small letter for the sugar, then the base; units joined by * are phosphorothioate-linked, units joined directly phosphodiester-linked; [ ] holds rarer units or linkages, { } end groups; capitals alone tell only the bases. e = 2'-O-(2-methoxyethyl) (MOE); l = locked nucleic acid (LNA); [5mC] = 5-methylcytosine; d = 2'-deoxy (DNA)

The substances below were run on human ABCB11 mRNA (assay: ASO treatment of primary human hepatocytes (PHH), ABCB11 mRNA by RT-qPCR normalized to B2M). Settings: primary human hepatocytes, 5 μM ASO, normalized to untreated PHHs (UNT).
Format: cell-based
Summary of the method: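 ABCB11 mRNA was quantified by Taqman RT-qPCR relative to B2M and expressed as fold over untreated cells. Cells were cryopreserved primary human hepatocytes given ASO in Matrigel-supplemented medium 4 h after plating, at 1.25, 2.5, 5 or 10 μM (5 μM for screening), and harvested after 72 hrs.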
“CO-7107 (eA*e[5mC]*eA*eT*eT*eT*eA*eG*eA*eG*eA*e[5mC]*eA*eA*eA*eG*eA*eA*eT*e[5mC]*eG*e[5mC]; antisense)” was tested, and the “ABCB11 mRNA FC (5 μM ASO vs. UNT)” value was 1.148 fold change.
For “CO-7108 (eA*e[5mC]*eA*eT*eT*dT*dA*dG*eA*dG*dA*d[5mC]*dA*eA*dA*dG*dA*eA*eT*e[5mC]*eG*e[5mC]; antisense)”, the “ABCB11 mRNA FC (5 μM ASO vs. UNT)” value was 1.101 fold change.
“CO-7109 (eA*e[5mC]*eA*eT*eT*lT*dA*dG*lA*dG*dA*d[5mC]*dA*lA*dA*dG*lA*eA*eT*e[5mC]*eG*e[5mC]; antisense)” was tested, and the “ABCB11 mRNA FC (5 μM ASO vs. UNT)” value was 1.043 fold change.
For “CO-7110 (eT*eA*e[5mC]*eA*eT*eT*eT*dA*dG*dA*dG*dA*d[5mC]*dA*dA*dA*dG*eA*eA*eT*e[5mC]*eG*e[5mC]*eT; antisense)”, the “ABCB11 mRNA FC (5 μM ASO vs. UNT)” value was 1.035 fold change.
With “CO-7111 (TACATTTAGAGACAAAGAATCGCT; fully MOE, PS/PO backbone, 5-methylcytosine; listed as RNA; modified_base 1..24: mod_base = OTHER; note = Phosphorothioate linkage; note = 2'-O-(2-methoxyethyl) ribonucleotide; modified_base 3: mod_base = OTHER; note = 5-methyl cytidine; modified_base 13: mod_base)” the “ABCB11 mRNA FC (5 μM ASO vs. UNT)” value was 1.027 fold change.
In the case of “CO-7112 (eT*eA*e[5mC]*eA*eT*dT*dT*eA*dG*dA*eG*dA*d[5mC]*eA*dA*dA*eG*dA*dA*eT*e[5mC]*eG*e[5mC]*eT; antisense)”, the “ABCB11 mRNA FC (5 μM ASO vs. UNT)” value is reported as 0.98 fold change.
With “CO-7113 (TACATTTAGAGACAAAGAATCGCT; MOE/LNA gapmer, PS/PO backbone, 5-methylcytosine; listed as DNA; modified_base 1..24: mod_base = OTHER; note = Phosphorothioate linkage; modified_base 1..5: mod_base = OTHER; note = 2'-O-(2-methoxyethyl) ribonucleotide; misc_feature 1..5: note = RNA; misc_feature 6..7: note = DNA; misc_feature 8: note = RNA)” the “ABCB11 mRNA FC (5 μM ASO vs. UNT)” value was 1.179 fold change.
“CO-7114 (eG*eT*eG*eT*eT*eT*dT*dG*d[5mC]*dT*dT*dG*dG*dT*d[5mC]*dA*eA*eG*eA*eG*eG*eA; antisense)” was tested, and the “ABCB11 mRNA FC (5 μM ASO vs. UNT)” value was 1.47 fold change.
“CO-7147 (antisense e[5mC]*eT*eT*eA*lG*eG*eA*eG*eG*lA*eT*eT*eA*eT*lT*eT*eA*eA*e[5mC]*e[5mC])” was tested, and the “ABCB11 mRNA FC (5 μM ASO vs. UNT)” value was 1.272 fold change.
For “CO-7148: derivative ASO with additional chemical modifications based on parent ASO CO-4517 (antisense e[5mC]*e[5mC]*eT*eT*eA*eG*dG*dA*dG*dG*dA*dT*dT*dA*dT*dT*eT*eA*eA*e[5mC]*e[5mC]*eT)”, the “ABCB11 mRNA FC (5 μM ASO vs. UNT)” value was 1.527 fold change.
With “CO-7149: derivative ASO with additional chemical modifications based on parent ASO CO-4517 (antisense e[5mC]*e[5mC]*eT*eT*eA*eG*eG*eA*eG*eG*eA*eT*eT*eA*eT*eT*eT*eA*eA*e[5mC]*e[5mC]*eT)” the “ABCB11 mRNA FC (5 μM ASO vs. UNT)” value was 1.719 fold change.
“CO-7150: derivative ASO with additional chemical modifications based on parent ASO CO-4517 (antisense e[5mC]*e[5mC]*eT*eT*eA*dG*dG*dA*eG*dG*dA*dT*dT*eA*dT*dT*dT*eA*eA*e[5mC]*e[5mC]*eT)” was tested, and the “ABCB11 mRNA FC (5 μM ASO vs. UNT)” value was 1.505 fold change.
“CO-7151: derivative ASO with additional chemical modifications based on parent ASO CO-4517 (antisense e[5mC]*e[5mC]*eT*eT*eA*lG*dG*dA*lG*dG*dA*dT*dT*lA*dT*dT*lT*eA*eA*e[5mC]*e[5mC]*eT)” was tested, and the “ABCB11 mRNA FC (5 μM ASO vs. UNT)” value was 1.498 fold change.
In the case of “CO-7152 (antisense eA*e[5mC]*e[5mC]*eT*eT*eA*eG*dG*dA*dG*dG*dA*dT*dT*dA*dT*dT*eT*eA*eA*e[5mC]*e[5mC]*eT*e[5mC])”, the “ABCB11 mRNA FC (5 μM ASO vs. UNT)” value is reported as 1.28 fold change.
With “CO-7153 (antisense eA*e[5mC]*e[5mC]*eT*eT*eA*eG*eG*eA*eG*eG*eA*eT*eT*eA*eT*eT*eT*eA*eA*e[5mC]*e[5mC]*eT*e[5mC])” the “ABCB11 mRNA FC (5 μM ASO vs. UNT)” value was 1.409 fold change.
For “CO-7154 (antisense eA*e[5mC]*e[5mC]*eT*eT*dA*dG*eG*dA*dG*eG*dA*dT*eT*dA*dT*eT*dT*dA*eA*e[5mC]*e[5mC]*eT*e[5mC])”, the “ABCB11 mRNA FC (5 μM ASO vs. UNT)” value was 1.274 fold change.
“CO-7155 (antisense eA*e[5mC]*e[5mC]*eT*eT*dA*dG*lG*dA*dG*lG*dA*dT*lT*dA*dT*lT*dT*dA*eA*e[5mC]*e[5mC]*eT*e[5mC])” was tested, and the “ABCB11 mRNA FC (5 μM ASO vs. UNT)” value was 1.253 fold change.
“CO-7157 (antisense eG*eT*eG*eG*eA*dG*d[5mC]*dA*dA*dA*d[5mC]*dT*dA*dG*dG*e[5mC]*eA*e[5mC]*eT*eG)” was tested, and the “ABCB11 mRNA FC (5 μM ASO vs. UNT)” value was 1.195 fold change.
With “CO-7158 (antisense eA*eG*eG*eT*eG*eG*eA*eG*e[5mC]*eA*eA*eA*e[5mC]*eT*eA*eG*eG*e[5mC]*eA*e[5mC])” the “ABCB11 mRNA FC (5 μM ASO vs. UNT)” value was 1.229 fold change.
In the case of “CO-7159 (antisense eG*eG*eA*eG*eG*eT*eG*eG*eA*eG*e[5mC]*eA*eA*eA*e[5mC]*eT*eA*eG*eG*e[5mC])”, the “ABCB11 mRNA FC (5 μM ASO vs. UNT)” value is reported as 1.326 fold change.
For “CO-7160 (antisense eT*eG*eT*eG*eG*eA*eG*eG*eT*eG*eG*eA*eG*e[5mC]*eA*eA*eA*e[5mC]*eT*eA)”, the “ABCB11 mRNA FC (5 μM ASO vs. UNT)” value was 1.312 fold change.
With “CO-7161 (antisense eG*eA*eT*eG*eT*eG*eG*eA*eG*eG*eT*eG*eG*eA*eG*e[5mC]*eA*eA*eA*e[5mC])” the “ABCB11 mRNA FC (5 μM ASO vs. UNT)” value was 1.324 fold change.
In the case of “CO-7163 (antisense e[5mC]*eA*eG*eA*e[5mC]*eA*eT*eG*eA*eT*eG*eT*eG*eG*eA*eG*eG*eT*eG*eG)”, the “ABCB11 mRNA FC (5 μM ASO vs. UNT)” value is reported as 1.308 fold change.
“CO-7164 (antisense eA*eT*eT*e[5mC]*eT*eA*e[5mC]*eA*eG*eA*eG*eG*eG*eA*eG*e[5mC]*eA*eT*eA*eA)” was tested, and the “ABCB11 mRNA FC (5 μM ASO vs. UNT)” value was 1.178 fold change.
“CO-7165 (antisense eT*eT*eA*eA*eT*eT*e[5mC]*eT*eA*e[5mC]*eA*eG*eA*eG*eG*eG*eA*eG*e[5mC]*eA)” was tested, and the “ABCB11 mRNA FC (5 μM ASO vs. UNT)” value was 1.329 fold change.
In the case of “CO-7166: derivative ASO with additional chemical modifications based on parent ASO CO-4535 (antisense eG*eT*eT*eA*eT*eT*eA*eA*eT*eT*e[5mC]*eT*eA*e[5mC]*eA*eG*eA*eG*eG*eG)”, the “ABCB11 mRNA FC (5 μM ASO vs. UNT)” value is reported as 1.517 fold change.
With “CO-7167 (antisense eG*eG*e[5mC]*eG*eT*eT*eA*eT*eT*eA*eA*eT*eT*e[5mC]*eT*eA*e[5mC]*eA*eG*eA)” the “ABCB11 mRNA FC (5 μM ASO vs. UNT)” value was 1.403 fold change.
In the case of “CO-7168 (antisense eT*eG*eG*e[5mC]*eG*dT*dT*dA*dT*dT*dA*dA*dT*dT*d[5mC]*eT*eA*e[5mC]*eA*eG)”, the “ABCB11 mRNA FC (5 μM ASO vs. UNT)” value is reported as 1.301 fold change.
“CO-7169 (antisense eT*eT*eA*eT*eT*eT*eG*eG*e[5mC]*eG*eT*eT*eA*eT*eT*eA*eA*eT*eT*e[5mC])” was tested, and the “ABCB11 mRNA FC (5 μM ASO vs. UNT)” value was 1.289 fold change.
In the case of “CO-7170 (antisense eT*e[5mC]*eT*eT*eA*eT*eT*eT*eG*eG*e[5mC]*eG*eT*eT*eA*eT*eT*eA*eA*eT)”, the “ABCB11 mRNA FC (5 μM ASO vs. UNT)” value is reported as 1.477 fold change.
For “CO-7171 (antisense eA*eG*eT*e[5mC]*eT*eT*eA*eT*eT*eT*eG*eG*e[5mC]*eG*eT*eT*eA*eT*eT*eA)”, the “ABCB11 mRNA FC (5 μM ASO vs. UNT)” value was 1.46 fold change.
With “CO-7177 (antisense eG*eT*eG*eG*lA*dG*d[5mC]*dA*lA*dA*d[5mC]*dT*lA*dG*dG*e[5mC]*lA*e[5mC]*eT*eG)” the “ABCB11 mRNA FC (5 μM ASO vs. UNT)” value was 1.455 fold change.
For “CO-7178: derivative ASO with additional chemical modifications based on parent ASO CO-4529 (antisense eG*eT*eG*lG*eA*lG*e[5mC]*lA*eA*lA*e[5mC]*lT*eA*lG*eG*l[5mC]*eA*l[5mC]*eT*eG)”, the “ABCB11 mRNA FC (5 μM ASO vs. UNT)” value was 1.737 fold change.
In the case of “CO-7179: derivative ASO with additional chemical modifications based on parent ASO CO-4529 (antisense eG*eT*lG*eG*lA*eG*l[5mC]*eA*lA*eA*l[5mC]*eT*lA*eG*lG*e[5mC]*lA*e[5mC]*eT*eG)”, the “ABCB11 mRNA FC (5 μM ASO vs. UNT)” value is reported as 2.344 fold change.
With “CO-7180: derivative ASO with additional chemical modifications based on parent ASO CO-4529 (antisense eG*eT*lG*eG*eA*lG*e[5mC]*eA*lA*eA*e[5mC]*lT*eA*eG*lG*e[5mC]*eA*l[5mC]*eT*eG)” the “ABCB11 mRNA FC (5 μM ASO vs. UNT)” value was 2.04 fold change.
For “CO-7181: derivative ASO with additional chemical modifications based on parent ASO CO-4529 (antisense eG*eT*eG*eG*lA*eG*e[5mC]*eA*lA*eA*e[5mC]*eT*lA*eG*eG*e[5mC]*lA*e[5mC]*eT*eG)”, the “ABCB11 mRNA FC (5 μM ASO vs. UNT)” value was 1.603 fold change.
With “CO-7182: derivative ASO with additional chemical modifications based on parent ASO CO-4529 (antisense eG*eT*eG*lG*eA*eG*e[5mC]*lA*eA*eA*e[5mC]*lT*eA*eG*eG*l[5mC]*eA*e[5mC]*eT*eG)” the “ABCB11 mRNA FC (5 μM ASO vs. UNT)” value was 1.572 fold change.
“CO-7183 (antisense eG*eT*eG*eG*eA*lG*e[5mC]*eA*eA*eA*l[5mC]*eT*eA*eG*eG*l[5mC]*eA*e[5mC]*eT*eG)” was tested, and the “ABCB11 mRNA FC (5 μM ASO vs. UNT)” value was 1.295 fold change.
With “CO-7184: derivative ASO with additional chemical modifications based on parent ASO CO-4529 (antisense eG*eT*eG*eG*lA*eG*e[5mC]*eA*eA*lA*e[5mC]*eT*eA*eG*lG*e[5mC]*eA*e[5mC]*eT*eG)” the “ABCB11 mRNA FC (5 μM ASO vs. UNT)” value was 1.582 fold change.
With “CO-7185 (antisense eT*eG*eG*e[5mC]*eG*lT*dT*dA*lT*dT*dA*lA*dT*dT*l[5mC]*eT*eA*e[5mC]*eA*eG)” the “ABCB11 mRNA FC (5 μM ASO vs. UNT)” value was 1.327 fold change.
